PMC8170749, “4-(1-Benzyl-1H-benzo[d]imidazol-2-yl)-4-oxo-2-butenoic Acid Derivatives: Design, Synthesis and Anti-HIV-1 Activity” (Iranian Journal of Pharmaceutical Research : IJPR, 2021)

What was measured:
[1] = test system: single cycle replicable HIV NL4-3 virions; test: single-cycle HIV-1 replication assay in HeLa cells (p24 ELISA); format: cell-based; conditions: for EC50: Human immunodeficiency virus 1, NL43, HeLa, 72 h, read-out: Anti-HIV-1 activity (EC50)
in vitro = conditions: human
[2] = design: method as in PMID 27659398, PMID 21728968, PMID 22214459, PMID 21767569; conditions: cited from earlier work
HIV-1 integrase (IN) = test system: HIV-1 integrase (IN); design: method as in PMID 27659398, PMID 21728968, PMID 22214459, PMID 21767569; conditions: cited from earlier work
HIV-1 = test system: HIV-1; design: method as in PMID 27659398, PMID 21728968, PMID 22214459, PMID 21767569; conditions: cited from earlier work

| SMILES | SI (selectivity index, CC50/EC50 ratio) [1] | EC50 [1] [µM] | CC50 at 72 h (in vitro) [µM] | cell toxicity [2] | inhibitory activity in enzymatic assays (HIV-1 integrase (IN)) | inhibitory activity in cellular assays (HIV-1) | CC50 (in vitro) [µM] |
| --- | --- | --- | --- | --- | --- | --- | --- |
| O=C(O)C(O)=CC(=O)c1nc2ccccc2n1Cc1ccccc1 [Compound 13a, 4-(1-benzyl-1H-benzo[d]imidazol-2-yl)-2-hydroxy-4-oxo-2-butenoic acid] | 4.5 | 110 | 500 |  |  |  |  |
| O=C(O)C(O)=CC(=O)c1nc2ccccc2n1Cc1ccccc1Cl [Compound 13e, 4-(1-(2-chlorobenzyl)-1H-benzo[d]imidazol-2-yl)-2-hydroxy-4-oxo-2-butenoic acid] | 2.4 | 155 | 380 |  |  |  |  |
| Cc1cccc(Cn2c(C(=O)C=C(O)C(=O)O)nc3ccccc32)c1 [Compound 13c, 4-(1-(3-methylbenzyl)-1H-benzo[d]imidazol-2-yl)-2-hydroxy-4-oxo-2-butenoic acid] | 5.7 | 75 | 430 |  |  |  |  |
| O=C(O)C(O)=CC(=O)c1nc2ccccc2n1Cc1cccc(F)c1 [Compound 13h, 4-(1-(3-fluorobenzyl)-1H-benzo[d]imidazol-2-yl)-2-hydroxy-4-oxo-2-butenoic acid] | 8.7 | 55 | 480 |  |  |  |  |
| Cc1ccc(Cn2c(C(=O)C=C(O)C(=O)O)nc3ccccc32)cc1 [Compound 13d, 4-(1-(4-methylbenzyl)-1H-benzo[d]imidazol-2-yl)-2-hydroxy-4-oxo-2-butenoic acid] | 11.6 | 50 | 580 |  |  |  |  |
| COc1cccc(Cn2c(C(=O)C=C(O)C(=O)O)nc3ccccc32)c1 [Compound 13i, 4-(1-(3-methoxybenzyl)-1H-benzo[d]imidazol-2-yl)-2-hydroxy-4-oxo-2-butenoic acid] | 5.4 | 90 | 490 |  |  |  |  |
| O=C(O)/C(O)=C/C(=O)c1cccn1Cc1ccc(F)cc1 [L-731,988] |  |  |  | low cell toxicity |  |  |  |
| Cc1ccccc1Cn1c(C(=O)C=C(O)C(=O)O)nc2ccccc21 [Compound 13b, 4-(1-(2-methylbenzyl)-1H-benzo[d]imidazol-2-yl)-2-hydroxy-4-oxo-2-butenoic acid] | 9.8 | 60 | 590 |  |  |  |  |
| O=C(O)C(O)=CC(=O)c1nc2ccccc2n1Cc1ccccc1F [Compound 13g, 4-(1-(2-fluorobenzyl)-1H-benzo[d]imidazol-2-yl)-2-hydroxy-4-oxo-2-butenoic acid] | 13.7 | 40 | 550 |  |  |  |  |
| COc1cccc2c1c(C(=O)/C=C(\O)C(=O)O)cn2Cc1ccc(F)cc1 [CHI-1043] |  |  |  | low cell toxicity | submicromolar | submicromolar |  |
| O=C(O)C(O)=CC(=O)c1nc2ccccc2n1Cc1cccc(Cl)c1 [Compound 13f, 4-(1-(3-chlorobenzyl)-1H-benzo[d]imidazol-2-yl)-2-hydroxy-4-oxo-2-butenoic acid] | 7.4 | 55 | 410 |  |  |  |  |
| Cc1nnc(C(=O)NC(C)(C)c2nc(C(=O)NCc3ccc(F)cc3)c(O)c(=O)n2C)o1 [Raltegravir, reference compound] |  | 0.9 |  |  |  |  | > 500 |
